Data: patent publication US20240316146A1, “METHODS OF REDUCING NEUROPATHY AND NEUROPATHIC SYMPTOMS AND TREATING CANCER” (Bexion Pharmaceuticals Inc., priority 2021, published 2024)
Values joined by “and” are separate entries in the source; they are usually repeats but may differ in a detail not shown here. Equal values may be shown once.

Test: Body weights, Study 2
Format: in vivo, mouse
Conditions: Group B Oxaliplatin/Vehicle, individual mice
Text: Body Weights: The mice were weighed daily starting 1 day prior to treatment through day 9.

O=C([O-])C(=O)[O-].[NH-][C@@H]1CCCC[C@H]1[NH-].[Pt+4] (relative stereo) [Oxaliplatin, cis-[(1R,2R)-1,2-cyclohexanediamine-N,N′][oxalato(2)-O,O′] platinum]
Individual body weights (D 0): 26.0 g (2×) and 22.4 g and 23.6 g (2×) and 23.1 g and 24.5 g (2×) and 23.2 g and 24.6 g and 21.9 g and 26.1 g | Individual body weights (D 1): 24.9 g (2×) and 21.1 g and 23.5 g (2×) and 22.5 g and 23.9 g and 23.7 g and 22.9 g and 23.0 g and 20.8 g and 25.4. g | Individual body weights (D 2): 24.8 g and 21.3 g and 23.2 g (2×) and 22.3 g and 24.6 g and 23.8 g (2×) and 23.0 g and 23.6 g and 21.0 g and 25.0 g | Individual body weights (D 3): 24.1 g and 22.4 g (2×) and 22.7 g and 22.2 g (2×) and 23.7 g and 23.0 g (2×) and 22.1 g and 20.6 g and 24.4 g | Individual body weights (D 4): 25.0 g (2×) and 23.5 g (3×) and 23.1 g (2×) and 22.6 g and 23.7 g and 22.7 g and 21.3 g and 24.8 g | Individual body weights (D 5): 25.2 g and 23.8 g and 22.8 g (2×) | Individual body weights (D −1): 25.3 g and 21.8 g and 23.6 g and 22.9 g (3×) and 25.5 g and 23.8 g and 24.1 g and 24.3 g and 21.6 g and 26.1 g | Individual body weights (D −2): 25.4 g (2×) and 21.9 g and 23.8 g (2×) and 23.3 g and 23.9 g and 23.0 g and 23.5 g and 24.1 g and 21.8 g and 25.2 g | Individual body weights (D −3): 26.0 g (2×) and 22.0 g (2×) and 24.0 g (4×) and 23.0 g (2×) and 25.0 g (2×)
